# Experiments:
# Assay in all cases: relative viability (nuclei count vs DMSO), 5 days (fraction); higher = more cells survive
# AZD1208 + Dasatinib = compound: N[C@@H]1CCCN(c2c(/C=C3\SC(=O)NC3=O)cccc2-c2ccccc2)C1 [AZD1208] + Cc1nc(Nc2ncc(C(=O)Nc3c(C)cccc3Cl)s2)cc(N2CCN(CCO)CC2)n1 [Dasatinib] (partner 0.075 µM)
# Summary of the method: (§1)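 Values are medians from duplicate plates. Each reflects relative viability, defined as the nuclei count of treated wells over that of vehicle wells. Lung cancer cell lines in 1536-well plates were pin-tool dosed one day after seeding with one drug alone or with a fixed anchor-drug dose plus five library-drug doses (not always all listed) in √10 steps, then fixed, stained and imaged at 4× after 5 days.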
# XMD14-99 + Olaparib = compound: CN1CCN(CC1)C2=CC(=C(C=C2)NC3=NC(=C(S3)C(=O)C4=C(C=CC=C4Cl)Cl)N)OC [XMD14-99] + O=C(c1cc(Cc2n[nH]c(=O)c3ccccc23)ccc1F)N1CCN(C(=O)C2CC2)CC1 [Olaparib] (partner 8 µM)
# Summary of the method: as §1
# XMD14-99 + Bortezomib = compound: CN1CCN(CC1)C2=CC(=C(C=C2)NC3=NC(=C(S3)C(=O)C4=C(C=CC=C4Cl)Cl)N)OC [XMD14-99] + CC(C)C[C@H](NC(=O)[C@H](Cc1ccccc1)NC(=O)c1cnccn1)B(O)O [Bortezomib] (partner 0.002 µM)
# Summary of the method: as §1
# XMD14-99 + Pictilisib = compound: CN1CCN(CC1)C2=CC(=C(C=C2)NC3=NC(=C(S3)C(=O)C4=C(C=CC=C4Cl)Cl)N)OC [XMD14-99] + CS(=O)(=O)N1CCN(Cc2cc3nc(-c4cccc5[nH]ncc45)nc(N4CCOCC4)c3s2)CC1 [Pictilisib] (partner 1 µM)
# Summary of the method: as §1
Cell Line,relative viability (AZD1208 + Dasatinib; first compound 0.08 µM),relative viability (AZD1208 + Dasatinib; first compound 0.253 µM),relative viability (AZD1208 + Dasatinib; first compound 0.8 µM),relative viability (AZD1208 + Dasatinib; first compound 2.53 µM),relative viability (AZD1208 + Dasatinib; first compound 8 µM),relative viability (XMD14-99 + Olaparib; first compound 0.08 µM),relative viability (XMD14-99 + Olaparib; first compound 0.8 µM),relative viability (XMD14-99 + Olaparib; first compound 2.53 µM),relative viability (XMD14-99 + Olaparib; first compound 8 µM),relative viability (XMD14-99 + Bortezomib; first compound 0.08 µM),relative viability (XMD14-99 + Bortezomib; first compound 0.8 µM),relative viability (XMD14-99 + Bortezomib; first compound 2.53 µM),relative viability (XMD14-99 + Bortezomib; first compound 8 µM),relative viability (XMD14-99 + Pictilisib; first compound 0.08 µM),relative viability (XMD14-99 + Pictilisib; first compound 0.8 µM),relative viability (XMD14-99 + Pictilisib; first compound 2.53 µM),relative viability (XMD14-99 + Pictilisib; first compound 8 µM)
NCI-H1792,0.722,0.595,0.647,0.675,0.55,0.486,0.383,0.265,0.0886,0.982,0.888,0.849,0.66,0.281,0.252,0.22,0.182
NCI-H1915,0.305,0.298,0.296,0.294,0.239,0.239,0.246,0.268,0.234,1.03,0.97,0.872,0.904,0.927,0.934,0.902,0.595
NCI-H1975,0.388,0.363,0.36,0.361,0.381,0.705,0.861,0.743,0.522,0.388,0.359,0.347,0.272,0.286,0.317,0.257,0.197
NCI-H1993,0.507,0.519,0.54,0.536,0.459,1.11,0.942,0.943,0.793,1.14,0.956,0.92,0.864,0.888,0.759,0.766,0.798
NCI-H2009,0.257,0.267,0.279,0.249,0.304,0.662,0.835,0.656,0.538,1.05,0.968,0.919,0.682,0.752,0.948,0.85,0.556
NCI-H2023,0.506,0.614,0.457,0.472,0.493,0.442,–,0.311,0.122,0.931,0.945,0.83,0.645,0.238,0.247,0.26,0.157
NCI-H2085,0.27,0.217,0.306,0.218,0.262,0.773,0.694,0.718,0.605,1.13,1.03,0.954,0.745,0.454,0.446,0.445,0.482
NCI-H2087,0.763,0.824,0.641,0.573,0.715,0.506,0.476,0.515,0.382,0.85,0.705,0.709,0.45,0.95,0.787,0.602,0.525
NCI-H2126,0.554,0.453,0.475,0.436,0.394,0.96,0.87,0.736,0.759,1.16,1.08,1.08,0.946,0.5,0.527,0.508,0.473
NCI-H2228,0.476,0.521,0.398,0.43,0.342,0.776,0.603,0.706,0.273,1.17,0.974,0.871,0.337,0.567,0.31,0.271,0.184
